Patent US9586956B2, “Isoquinoline and naphthyridine derivatives” (Genentech, Inc., priority 2012, dated 2017)

Biological target: T1, purified human MAP4K4 kinase domain (Homo sapiens, UniProt O95819)
T1 construct: purified human MAP4K4 kinase domain
Experiment: MAP4K4 Inhibition Assay Protocol No. 2 (Z'-LYTE FRET)
Type: biochemical
Settings: Assay 2; 1 nM enzyme, 10 uM ATP, 60 min
From the text: The kinase activity of purified human MAP4K4 kinase domain was monitored using Z'-LYTE™ technology from Invitrogen to determine inhibition constants (IC50) of small molecule inhibitors. The Z'-LYTE™ biochemical assay employs a fluorescence-based, coupled-enzyme format and is based on the differential sensitivity of phosphorylated and non-phosphorylated peptides to proteolytic cleavage. In the primary reaction, the kinase transfers the gamma-phosphate of ATP to a single tyrosine, serine or threonine residue in a synthetic FRET-peptide. In the secondary reaction, a site-specific protease recognizes and cleaves non-phosphorylated FRET-peptides. Phosphorylation of FRET-peptides suppresses cleavage by the Development Reagent. Cleavage disrupts FRET between the donor (i.e., coumarin) and acceptor (i.e., fluorescein) fluorophores on the FRET-peptide, whereas uncleaved, phosphorylated FRET-peptides maintain FRET. To determine inhibition constants (IC50), compounds were serially diluted in DMSO and added to 10 uL kinase reactions containing 1 nM purified MAP4K4 enzyme, 2 uM ser/thr7 Z'-LYTE™ substrate, 10 uMATP, 50 mM Hepes (pH 7.5), 10 mM MgCl2, 1 mM EGTA, 0.01% Brij-35, and 2% DMSO. Reactions were incubated at room temperature in Corning Black 384 well plates (Corning#3573) for 60 minutes and stopped by the addition of 5 uL of Z'-LYTE™ development reagent A and incubated at room temp for 60 minutes. The plate is then analyzed on Perkin Elmer Envision by FRET mode. The high ratio of coumarin/fluorescein represents 0% phosphorylation rate while low ratio of coumarin/fluorescein represents 100% phosphorylation rate. The following equations are used to determine extent of peptide phosphorylation or inhibition: […]

T1 sequence (O95819 25-289 limits assumed): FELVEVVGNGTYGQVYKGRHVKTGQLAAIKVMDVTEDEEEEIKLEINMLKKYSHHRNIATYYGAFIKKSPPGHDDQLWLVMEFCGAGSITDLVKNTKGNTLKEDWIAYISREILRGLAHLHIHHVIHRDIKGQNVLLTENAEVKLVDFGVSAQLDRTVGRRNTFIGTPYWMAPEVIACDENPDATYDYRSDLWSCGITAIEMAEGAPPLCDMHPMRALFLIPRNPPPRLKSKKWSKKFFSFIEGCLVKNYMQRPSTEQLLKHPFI

Row | IC50 | SMILES
1 | 0.00832 µM | Nc1ncc(-c2ncn[nH]2)c2ccc(-c3cccc(F)c3)nc12 [Example 42, 2-(3-fluorophenyl)-5-(1H-1,2,4-triazol-5-yl)-1,7-naphthyridin-8-amine]
2 | 0.0326 µM | CCOC(=O)c1cnc(N)c2nc(-c3cccc(OC(C)C)c3)ccc12 [Example 146, ethyl 8-amino-2-(3-isopropoxy-phenyl)-1,7-naphthyridine-5-carboxylate]
3 | 0.382 µM | CCOC(=O)c1cnc(N)c2nc(-c3ccc(Cl)cc3Cl)ccc12 [Example 154, ethyl 8-amino-2-(2,4-dichloro-phenyl)-1,7-naphthyridine-5-carboxylate]
4 | 0.0116 µM | CS(=O)(=O)N1CC(NC(=O)c2cnc(N)c3nc(-c4cccc(F)c4)ccc23)C1 [Example 18, 8-amino-2-(3-fluorophenyl)-N-(1-(methylsulfonyl)azetidin-3-yl)-1,7-naphthyridine-5-carboxamide]
5 | 0.155 µM | Nc1ncc(CNS(=O)(=O)C2CC2)c2ccc(-c3cccc(F)c3)cc12 [Example 134, N-[[1-amino-7-(3-fluoro-phenyl)-4-isoquinolyl]methyl] cyclopropanesulfonamide]
6 | 0.00873 µM | Nc1ncc(-c2ncco2)c2ccc(-c3cccc(F)c3)cc12 [Example 11, 7-(3-fluorophenyl)-4-oxazol-2-yl-isoquinolin-1-amine]
7 | 0.0198 µM | CC(=O)NC1CN(C(=O)c2cnc(N)c3nc(-c4cccc(F)c4)ccc23)C1 [Example 32, N-(1-(8-amino-2-(3-fluorophenyl)-1,7-naphthyridine-5-carbonyl)azetidin-3-yl)acetamide]
8 | 0.00378 µM | CCC(=O)N1CC(NC(=O)c2cnc(N)c3nc(-c4cccc(F)c4)ccc23)C1 [Example 35, 8-amino-2-(3-fluorophenyl)-N-(1-propionylazetidin-3-yl)-1,7-naphthyridine-5-carboxamide]
9 | 0.48 µM | CCOC(=O)c1cnc(N)c2nc(-c3cccc(S(=O)(=O)N(C)C)c3)ccc12 [Example 142, ethyl 8-amino-2-[3-(dimethyl-sulfamoyl)phenyl]-1,7-naphthyridine-5-carboxylate]
10 | 0.00248 µM | Nc1ncc(-c2cn(CCN3CCOCC3)cn2)c2ccc(-c3cccc(F)c3)nc12 [Example 43, 2-(3-fluorophenyl)-5-(1-(2-morpholinoethyl)-1H-imidazol-4-yl)-1,7-naphthyridin-8-amine]
11 | 0.0145 µM | Cn1ccc(-c2cnc(N)c3cc(-c4cccc(F)c4)ccc23)n1 [Example 138, 7-(3-fluorophenyl)-4-(1-methylpyrazol-3-yl) isoquinolin-1-amine]
12 | 0.0278 µM | CCOC(=O)c1cnc(N)c2nc(-c3ccc(Cl)cc3)ccc12 [Example 149, ethyl 8-amino-2-(4-chlorophenyl)-1,7-naphthyridine-5-carboxylate]
13 | 0.00294 µM | Nc1ncc(C(=O)NC2CN(C(=O)C3CC3)C2)c2ccc(-c3cccc(F)c3)nc12 [Example 37, 8-amino-N-(1-(cyclopropanecarbonyl)azetidin-3-yl)-2-(3-fluorophenyl)-1,7-naphthyridine-5-carboxamide]
14 | 0.0045 µM | CC(O)C(=O)N1CC(NC(=O)c2cnc(N)c3nc(-c4cccc(F)c4)ccc23)C1 (stereo not drawn) [Example 16, 8-amino-2-(3-fluorophenyl)-N-(1-(2-hydroxypropanoyl)azetidin-3-yl)-1,7-naphthyridine-5-carboxamide]
15 | 0.0285 µM | Nc1ncc(C(=O)NC2CN(S(=O)(=O)C(F)(F)F)C2)c2ccc(-c3cccc(F)c3)nc12 [Example 23, 8-amino-2-(3-fluorophenyl)-N-(1-((trifluoromethyl)sulfonyl)azetidin-3-yl)-1,7-naphthyridine-5-Carboxamide]
16 | 0.162 µM | CNC(=O)N1CCC(NC(=O)c2cnc(N)c3cc(-c4cccc(F)c4)ccc23)C1 (stereo not drawn) [Example 135, 1-amino-7-(3-fluorophenyl)-N-[1-(methylcarbamoyl)pyrrolidin-3-yl] isoquinoline-4-carboxamide]
17 | 0.0044 µM | COCC(=O)N1CC(NC(=O)c2cnc(N)c3nc(-c4cccc(F)c4)ccc23)C1 [Example 39, 8-amino-2-(3-fluorophenyl)-N-(1-(2-methoxyacetyl)azetidin-3-yl)-1,7-naphthyridine-5-carboxamide]
18 | 0.00918 µM | C[C@H](O)C(=O)N1CC(NC(=O)c2cnc(N)c3nc(-c4cccc(F)c4)ccc23)C1 [Example 25, (S)-8-amino-2-(3-fluorophenyl)-N-(1-(2-hydroxypropanoyl)azetidin-3-yl)-1,7-naphthyridine-5-carboxamide]
19 | 1.2 µM | CN(C(=O)c1cnc(N)c2nc(-c3cccc(F)c3)ccc12)C1CN(C(=O)C2CC2)C1 [Example 41, 8-amino-N-(1-(cyclopropanecarbonyl)azetidin-3-yl)-2-(3-fluorophenyl)-N-methyl-1,7-naphthyridine-5-carboxamide]
20 | 0.00385 µM | CN(C)S(=O)(=O)N1CC(NC(=O)c2cnc(N)c3nc(-c4cccc(F)c4)ccc23)C1 [Example 19, 8-amino-N-(1-(N,N-dimethylsulfamoyl)azetidin-3-yl)-2-(3-fluorophenyl)-1,7-naphthyridine-5-carboxamide]
21 | 0.0106 µM | Nc1ncc(-c2cc(CO)ccn2)c2ccc(-c3cccc(F)c3)cc12 [Example 137, [2-[1-amino-7-(3-fluoro-phenyl)-4-isoquinolyl]-4-pyridyl]methanol]
22 | 0.00165 µM | Nc1ncc(C(=O)NC2CCC2)c2ccc(-c3cccc(F)c3)nc12 [Example 33, 8-amino-N-cyclobutyl-2-(3-fluorophenyl)-1,7-naphthyridine-5-carboxamide]
23 | 0.00769 µM | CCOC(=O)c1cnc(N)c2nc(-c3cccc(OC(F)F)c3)ccc12 [Example 140, ethyl 8-amino-2-[3-(difluoro-methoxy)phenyl]-1,7-naphthyridine-5-carboxylate]
24 | 0.0195 µM | Nc1ncc(C(=O)NC2CN(C(=O)C3COC3)C2)c2ccc(-c3cccc(F)c3)nc12 [Example 17, 8-amino-2-(3-fluorophenyl)-N-(1-(oxetane-3-carbonyl)azetidin-3-yl)-1,7-naphthyridine-5-carboxamide]
25 | 0.00455 µM | Nc1ncc(C(=O)NC2CN(C(=O)N3CCS(=O)(=O)CC3)C2)c2ccc(-c3cccc(F)c3)nc12 [Example 15, 8-amino-N-(1-(1,1-dioxidothiomorpholine-4-carbonyl)azetidin-3-yl)-2-(3-fluorophenyl)-1,7-naphthyridine-5-carboxamide]
26 | 0.00652 µM | CCOC(=O)c1cnc(N)c2nc(-c3ccc(F)cc3C)ccc12 [Example 153, ethyl 8-amino-2-(4-fluoro-2-methyl-phenyl)-1,7-naphthyridine-5-carboxylate]
27 | 0.0212 µM | CCOC(=O)c1cnc(N)c2nc(-c3ccc(OC)cc3)ccc12 [Example 150, ethyl 8-amino-2-(4-methoxy-phenyl)-1,7-naphthyridine-5-carboxylate]
28 | 0.00339 µM | CCOC(=O)c1cnc(N)c2nc(-c3ccnc(C)c3)ccc12 [Example 141, ethyl 8-amino-2-(2-methyl-4-pyridyl)-1,7-naphthyridine-5-carboxylate]
29 | 0.002 µM | Nc1ncc(-c2nnco2)c2ccc(-c3cccc(F)c3)nc12 [Example 28, 2-(3-fluorophenyl)-5-(1,3,4-oxadiazol-2-yl)-1,7-naphthyridin-8-amine]
30 | 0.0636 µM | CCOC(=O)c1cnc(N)c2nc(-c3cccc(S(C)(=O)=O)c3)ccc12 [Example 143, ethyl 8-amino-2-(3-methyl-sulfonylphenyl)-1,7-naphthyridine-5-carboxylate]
